Experimental data from article PMC12040169 (PLOS Biology, 2025).

Assay: in vitro
Conditions: human, hela cells, % viability

Compound | viability at 28.5 h, 10 µM
Nc1nnc(SCCC(=O)N2CCN(c3ccc(F)cc3)CC2)s1 [CBK304597] | 84.7%
CC(=O)Nc1cccc(-n2nnnc2SCc2noc(C)n2)c1 [CBK304599] | 90.9%
CC(C)(C)OC(=O)N1CCC(NCc2ccccn2)CC1 [CBK304603] | 97.1%
CCc1ccc(C(O)CNC2CCN(C3CCCCC3)CC2)cc1 (stereo not shown) [CBK304604] | 88.2%
COc1ccc(CC(=O)NC(c2nnc3ccccn23)C(C)C)cc1 (stereo not shown) [CBK304607] | 89.4%
OCCn1ncc2c(NCc3nncn3-c3ccccc3)ncnc21 [CBK304608] | 98.5%
Cc1ccc(CN(Cc2ccco2)CC(O)COCc2ccco2)s1 (stereo not shown) [CBK304610] | 96.7%
Cn1cc(C2CCCCN2C(=O)c2cccc(C#N)c2)cn1 (stereo not shown) [CBK304611] | 87.9%
Cc1cnc2c(C(=O)N3CCCC3c3ccccn3)cnn2c1 (stereo not shown) [CBK304612] | 91.8%
COc1ccc(CC(=O)NCCc2nnc3ccccn23)cc1 [CBK304613] | 74.7%
COc1ccc2c(c1)c(C(=O)NCCn1nc(C)cc1C)c(C)n2C [CBK304615] | 78%
COC(=O)c1cc(S(=O)(=O)NC2CCCc3ccccc32)cn1C (stereo not shown) [CBK304616] | 98.4%
Cc1cccn2cc(CCNC(=O)N[C@H](C)C(=O)N(C)C)nc12 [CBK304617] | 110%
CN(CC(=O)Nc1sc2c(c1C#N)CCCC2)Cc1cnn(C)c1 [CBK304618] | 92.8%
CCOC(=O)N1CCN(S(=O)(=O)c2ccc3c(c2)n(C)c(=O)n3C)CC1 [CBK304620] | 86.8%
CN(CC(=O)Nc1sc2c(c1C#N)CCCCC2)Cc1cnn(C)c1 [CBK304621] | 94.3%
COc1ccc2cc(C(=O)N3CCc4[nH]c(=O)c(C#N)cc4C3)[nH]c2c1 [CBK304622] | 87.8%
CC1CCc2c(sc(NC(=O)c3cccs3)c2C#N)C1 (stereo not shown) [CBK304625] | 101%

Compound | viability at 28.5 h, 10 µM
COc1ccc(CNC(=O)C2CCCN(S(=O)(=O)c3cccs3)C2)cc1 (stereo not shown) [CBK304628] | 95.8%
CC(=O)Nc1cccc(C(=O)N2CCOC(CCc3ccccc3)C2)c1 (stereo not shown) [CBK304629] | 88.7%
O=c1cc(N2CCCC2)cnn1Cc1cscn1 [CBK304635] | 84.1%
COc1ccc(CNC(=O)c2cc(S(=O)(=O)N3CCCC3)cn2C)cc1 [CBK304637] | 95.2%
CC(C)n1cnnc1CN(C)C(=O)CCc1nc2ccccc2s1 [CBK304638] | 97%
COc1cccc(C(=O)NCCC(=O)N2CCOCC2)c1 [CBK304639] | 104%
O=C(Cn1nc2n(c1=O)CCCCC2)NCc1ccccc1Cl [CBK304642] | 86.6%
O=C(CCCn1cccn1)N1CCOC(c2ccc(Cl)cc2)C1 (stereo not shown) [CBK304643] | 79.1%
Cc1nn(C)c(C)c1C(=O)Nc1sc2c(c1C#N)CCC(C)C2 (stereo not shown) [CBK304645] | 54.9%
Cc1ccc(C)c(NC(=O)CCc2c(C)[nH]c3ncnn3c2=O)c1 [CBK304646] | 94.5%
O=C(Cn1nc2n(c1=O)CCCC2)NCc1ccccc1Cl [CBK304647] | 104%
CC(=O)OC1CCN(C(=O)c2cccc(C#N)c2)CC1 [CBK304648] | 93.3%
CCCN(CCC)C(=O)Cn1cnc2ccc(Cl)cc2c1=O [CBK304651] | 78.2%
CC(=O)c1cccc(NC(=O)Cn2nc(C)ccc2=O)c1 [CBK304653] | 101%
Cn1c(=O)c2c(ncn2CC(=O)NCCOc2ccccc2)n(C)c1=O [CBK304654] | 95.5%
Cn1ccnc1C(O)C1CCN(C(=O)NCCc2cccc(F)c2)CC1 (stereo not shown) [CBK304657] | 80.5%
CNS(=O)(=O)CCNC(=O)N1CCCN(Cc2ccc(F)cc2)CC1 [CBK304658] | 88.8%
Cc1nn(CC(=O)NCC(c2cccnc2)N2CCOCC2)c(C)c1Cl (stereo not shown) [CBK304659] | 118%

Same assay, conditions: human, hela cells, % viability, bulk resorufin, single well

Compound | viability at 28.5 h, 10 µM
O=C(Cn1c(=O)oc2cc(Cl)ccc21)N1CCC2(CC1)OCCO2 [CBK304652] | 97%
